Reference: patent US20210292755A1, “NOVEL DOUBLE-STRANDED OLIGONUCLEOTIDES FOR THE TREATMENT OF CANCER” (SELEXEL, priority 2016, published 2021)
Entries after “also recorded” stand apart in the source; their conditions may differ.

How the values were obtained:
AR-encoding mRNA = assay: RT-qPCR of AR-encoding mRNA after siRNA transfection; format: cell-based, human; conditions: for AR mRNA expression: both lines
Procedure: (§1) All the cells used in the following examples are human cells and express H2AX.
(§2) The cells are cultured in DMEM or RPMI supplemented with 10% fetal calf serum, or as recommended by the ATCC. When indicated, they are transfected with siRNA using lipofectamine (Life Technologies), following the supplier's protocol. The number of living cells after the indicated treatments was quantified by measuring their metabolic activity by the WST1 test according to the supplier's indications (Roche).
(§3) The effect of siRNA transfection and/or treatments by different chemotherapeutic agents on gene expression was measured: • by RT-qPCR quantification of mRNAs extracted by a conventional phenol-chloroform method (Trizol). The amount of RNA was normalized by measuring the cyclophilin A-encoding mRNA which is not regulated by AR (delta delta CT method). • by Western blotting on protein extracts. The antibodies used are: AR: Santacruz, N-20 sc-816; H2AX: Merck Millipore ref 07-627; Tubulin: Sigma T6199; Actin: Merck Millipore MAB 1501; γH2AX: Merck Millipore 05-636. […] The antibodies used are the following: γH2AX: Merck Millipore 05-636; 53BP1: Novus, NB 100-304.

H2AX-encoding mRNA = assay: RT-qPCR of H2AX-encoding mRNA after siRNA transfection; format: cell-based, human
Procedure: as §1, §2, §3

PSA-encoding mRNA = assay: RT-qPCR of PSA-encoding mRNA after siRNA transfection; format: cell-based, human; conditions: LNCaP or C4-2 cells, both lines, 72 hours after transfection
Procedure: as §1, §2, §3
In the experiment shown in FIG. 4, the LNCaP or C4-2 tumor cells were transfected with the following siRNAs: Cont, siAR7 or siARH2AX-1.

AR = assay: Western blot of AR after siRNA transfection; format: cell-based, human; conditions: C4-2 cells, 72 h after transfection
Procedure: as §1, §2, §3

H2AX = assay: Western blot of H2AX after siRNA transfection; format: cell-based, human
Procedure: as §1, §2, §3

γH2AX [1] = assay: Western blot of γH2AX after siRNA transfection; format: cell-based, human; conditions: PC3 cells, 72 hours after transfection
Procedure: as §1, §2, §3

γH2AX [2] = assay: Indirect immunofluorescence of γH2AX, bleomycin-treated transfected cells; format: cell-based, human; conditions: 72 hours after transfection
Procedure: (§4) FIG. 8: Immuno detection of γH2AX (first column) and 53BP1 (second column) in C4-2 cells treated for 6 h with bleomycin ([…]) or the vehicle added 72 h after transfection of cells by a control siRNA (Cont), siAR7 siRNA, or siARH2AX-1.
as §1, §2, §3
(§5) In the experiment shown in FIG. 8, C4-2 cells were transfected with a control or siARH2AX-1 siRNA. 72 hours after transfection, the cells were then treated for 6 hours with […] of bleomycin or the corresponding vehicle.

53BP1 = assay: Indirect immunofluorescence of 53BP1, bleomycin-treated transfected cells; format: cell-based, human
Procedure: as §4, §1, §2, §3, §5

22RV1 cells = assay: WST1 cell viability test; format: cell-based, human; conditions: 72 hr after transfection
Procedure: as §1, §2

C4-2 cells = assay: WST1 cell viability test; format: cell-based, human
Procedure: as §1, §2

LNCaP cells = assay: WST1 cell viability test; format: cell-based, human
Procedure: as §1, §2

MDA MB-453 cells = assay: WST1 cell viability test; format: cell-based, human; conditions: 72 hr after transfection
Procedure: as §1, §2

MDA MB231 cells = assay: WST1 cell viability test; format: cell-based, human
Procedure: as §1, §2

U87 cells = assay: WST1 cell viability test; format: cell-based, human; conditions: 72 hr after transfection
Procedure: as §1, §2

WM266-4 cells = assay: WST1 cell viability test; format: cell-based, human
Procedure: as §1, §2

human AR mRNA = assay: AR mRNA in tibia of 22RV1 tumor-bearing mice; format: in vivo; conditions: Nude mice with 22RV1 tumors, 0.2 mg/kg/day continuous subcutaneous, 3 weeks, in 154 mM NaCl
Procedure: Left panel: Expression level of human AR mRNA in nude mouse tibia carrying 22RV1 human prostate tumors in vehicle-treated mice (154 mM NaCl, black bar) or siARH2AX-1 diluted in this vehicle (gray bar) and administered subcutaneously continuously for 3 weeks (mean±SEM, n=7 values relative to the mean value of the NaCl group).
(§6) Tumors are obtained by subcutaneous injection of tumor cells into the flank of Nude mice. Only animals on which tumor uptake is found are included in the study and randomized to receive treatment or control treatment.
When indicated, the continuous administration of siRNA is carried out by implantation of an Alzet osmotic pump subcutaneously on the back of the mice, on the opposite side to the tumor when the mice wear one. […]
(§7) At the end of the experiment, the animals are sacrificed, the serum, the tumors and different tissues are dissected, the extracted RNAs and the siRNAs present in these RNAs are quantified.
(§8) In the experiment shown in FIG. 14, 22RV1 cells were implanted in Nude mice. Once the tumor was detected, Alzet pumps administering either 0.2 mg/kg/day siARH2AX-1 siRNA formulated in saline (154 mM NaCl), or the vehicle alone, were implanted for 3 weeks. At the end of treatment, the bones (tibia) were recovered to quantify siARH2AX-1, and the androgen receptor- and the HPRT-encoding mRNAs of human origin.

[3] = system: 22RV1 human prostate tumors; assay: Bone metastases of 22RV1 tumors in Nude mice (human HPRT mRNA); format: in vivo; conditions: 0.2 mg/kg/day continuous subcutaneous, 3 weeks, in 154 mM NaCl
Procedure: Right panel: Metastatic load in bone as measured by the expression of human HPRT mRNA in both groups of animals. Each bar represents bone metastatic load in a mouse.
as §6
(§9) When indicated, the continuous administration of siRNA is carried out by implantation of an Alzet osmotic pump subcutaneously on the back of the mice, on the opposite side to the tumor when the mice wear one. The concentration of siRNA in the pump is adjusted to deliver the indicated amount in mg/kg/day taking into account the pump flow rate indicated by the manufacturer.
as §7, §8

[4] = siRNA distribution by RT-qPCR, continuous subcutaneous osmotic pump; format: in vivo; conditions: 2 mg/kg/day continuous subcutaneous, 3 days, 22RV1 tumor-bearing mice; 10 mM citrate buffer pH 6 with oxidized LDL (1:0.1 weight:weight) versus 154 mM NaCl
Source text: To quantify a siRNA in the biological samples, the inventors have developed a reverse transcription method followed by a quantitative PCR (RT-qPCR). For each siRNA, a specific stem-loop primer, having 8 overflowing nucleotides is synthesized, the 8 nucleotides being complementary to the 8 nucleotides of the 3′ end of the siRNA guide (antisense) strand. After a reverse transcription step, the product obtained is amplified by PCR using two primers, one hybridizing with the region corresponding to the loop of the reverse transcription primer. The 12 nucleotides at 3′ of the second primer having a DNA sequence corresponding to the 12 nucleotides of the 5′ end of the newly synthesized cDNA after reverse transcription of the siRNA guide strand. Detection of the amplification is carried out continuously by the degradation of a Taqman fluorescent probe or by incorporation of SybrGreen.
A range of double stranded siRNAs, from 10^3 to 10^9 copies in the RT reaction, diluted in water is made and treated together with the samples by RT-qPCR.
The biological samples in which siRNAs are quantified are either serum or total RNAs extracted from tissue fragments of known weight assumed to contain siRNA. […]
At the end of the experiment, the animals are sacrificed, the serum, the tumors and different tissues are dissected, the extracted RNAs and the siRNAs present in these RNAs are quantified. […]

[5] = system: 22RV1 human prostatic tumor; assay: Subcutaneous tumor volume in mice; format: in vivo; conditions: 2 mg/kg/day
Procedure: as §6, §9
The subcutaneous tumors volume is estimated by measuring with a calliper the largest (D), the smallest (d) diameter of the tumors and their height (h). The volume is calculated by the formula V=D×d×h×Pi/6.

[6] = C4-2 cells, 48 hours after transfection, relative to control siRNA
[7] = 40 μl of etoposide added 24 hours after transfection, WST1 48 h later

Substance: siARH2AX-1: bispecific AR-H2AX siRNA, SEQ ID NO: 1 GACUCAGCUGCCCCAUCCA[dT][dT] and SEQ ID NO: 2 UGGAUGGGGCAGCUGAGUC[dT][dT] (chain 1 GACUCAGCUGCCCCAUCCANN; chain 2 UGGAUGGGGCAGCUGAGUCNN; 3' dTdT overhangs, chemistry not fully specified)
- AR expression (mRNA) (AR-encoding mRNA; [6]): inhibit AR expression in a similar manner
- AR mRNA expression (AR-encoding mRNA; LNCaP or C4-2 cells, 72 hours after transfection): inhibit the expression of AR and PSA
- AR mRNA expression (AR-encoding mRNA; LNCaP or MDA MB-453 cells, 72 h after transfection): inhibits the expression of the two AR- and H2AX-encoding mRNAs
- H2AX expression (mRNA) (H2AX-encoding mRNA; [6]): much more effective than siAR2 siRNA in inhibiting H2AX expression
- inhibition of H2AX mRNA expression (H2AX-encoding mRNA; LNCaP or C4-2 cells, both lines, 72 hours after transfection): more than 90%
- H2AX mRNA expression (H2AX-encoding mRNA; LNCaP or MDA MB-453 cells, both lines, 72 h after transfection): inhibits the expression of the two AR- and H2AX-encoding mRNAs
- PSA mRNA expression (PSA-encoding mRNA): inhibit the expression of AR and PSA
- AR protein expression (AR): inhibits the expression of both AR and H2AX proteins
- H2AX protein expression (H2AX; C4-2 cells, 72 h after transfection): inhibits the expression of both AR and H2AX proteins
- H2AX protein expression (H2AX; PC3 cells, 72 hours after transfection): is inhibited
- γH2AX phosphorylated form (γH2AX [1]): inhibition of its γH2AX phosphorylated form
- expression of H2AX (immunofluorescence) (γH2AX [2]; C4-2 cells, without bleomycin, compared to control condition): very small compared to the control condition
- γH2AX labeling after bleomycin (γH2AX [2]; siRNA-transfected C4-2 cells, bleomycin 6 hours): no increase H2AX
- expression of 53BP1 (53BP1; C4-2 cells, 72 hours after transfection, without bleomycin, compared to control condition): comparable
- DNA repair (53BP1; conclusion from γH2AX/53BP1 experiment in C4-2 cells): inhibits DNA repair
- recruitment of 53BP1 to DNA lesions after bleomycin (53BP1; siRNA-transfected C4-2 cells, 72 hours after transfection, bleomycin 6 hours): no increase H2AX or recruitment of 53BP1
- cell viability / proliferation (22RV1 cells): inhibits the proliferation of all cell lines
- cell viability / proliferation (C4-2 cells; 72 hr after transfection): inhibits the proliferation of all cell lines
- cell viability (C4-2 cells; 90 hours after transfection): significantly reduced
- cell viability, siRNA combined with bleomycin (C4-2 cells; bleomycin (10 μM) added 48 hours after transfection, read 48 hours later, versus chemotherapeutic agent alone): potentiate to inhibit cell viability
- cell viability, siRNA combined with etoposide (C4-2 cells; etoposide (10 μM) added 48 hours after transfection, read 48 hours later, versus chemotherapeutic agent alone): potentiate to inhibit cell viability
- cell viability / proliferation (LNCaP cells; 72 hr after transfection): inhibits the proliferation of all cell lines
- cell survival, siRNA combined with bleomycin, versus addition of the separate effects (LNCaP cells; bleomycin (10 μM)): approximately twice as inhibitory
- cell viability / proliferation (MDA MB-453 cells): inhibits the proliferation of all cell lines
- cell viability, siRNA combined with etoposide (MDA MB231 cells; [7]): potentiate when combined
- cell viability / proliferation (MDA MB231 cells; 72 hr after transfection): inhibits the proliferation of all cell lines
- cell viability (MDA MB231 cells; 90 hours after transfection): significantly reduced
- cell viability / proliferation (U87 cells): inhibits the proliferation of all cell lines
- cell viability, siRNA combined with etoposide (WM266-4 cells; [7]): potentiate when combined
- cell viability / proliferation (WM266-4 cells; 72 hr after transfection): inhibits the proliferation of all cell lines
- expression of the androgen receptor in the bones (tibia) (human AR mRNA): inhibit the expression of the androgen receptor
- number of mice spontaneously developing bone metastases [3]: decrease in the number of mice spontaneously developing bone metastases
- size of bone metastases (human HPRT mRNA level in bone) [3]: decrease in the size of these tumors
- concentration of siARH2AX-1 in serum, different organs and tumors [4]: increases the concentration
- tumor development, combination with etoposide ([5]; siARH2AX-1 2 mg/kg/day continuous subcutaneous plus etoposide intraperitoneal): potentiates the effect of these two treatments taken separately; also recorded: amplifies tumor growth inhibition
- tumor development ([5]; siARH2AX-1 2 mg/kg/day continuous subcutaneous, 22 days, 10 mM citrate buffer pH 6 with 10 mM MgCl2): as effective as the high dose of etoposide; also recorded: effectively inhibits tumor development
